The text below walks through data of ChEMBL document CHEMBL1201862, “PubChem BioAssay data set” (2004).

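Tested at 5 concentrations; 48 h exposure; 96-well plates; endpoints linearly interpolated, else capped at highest concentration. The concentration for 50% growth inhibition is given as GI50.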 Calls of active or inactive are those of the source. Rule as the data show it: active = GI50 up to about 1.1 µM and inactive = higher.

What all share (assay): inhibition of tumour cell growth, NCI panel, 48 h
The subject of test [1] is T47D.
Test [2] concerns MCF7.
For test [3], the system named is MDA-N.
For test [4], the system named is 786-0.
Test [5] deals with EKVX.
Test [6] deals with CAKI-1.
Test [7] relates to OVCAR-3.
Test [8] deals with SF-539.
Test [9] deals with NCI-H226.
The subject of test [10] is SK-MEL-2.
The subject of test [11] is SW-620.
In test [12] the test system is A549.
In test [13] the test system is KM12.
The subject of test [14] is COLO 205.
The subject of test [15] is M14.
Test [16] relates to OVCAR-4.
Test [17] relates to HCT-116.
For test [18], the system named is UO-31.
Test [19] has as its system NCI-H522.
Test [20] has as its system HL-60.

Regarding `COc1cc2c3cc1Oc1c(OC)c(OC)cc4c1C(Cc1ccc(O)c(c1)Oc1ccc(cc1)CC3N(C)CC2)CN(C)C4` (stereo not given), the GI50 in test [1] was 22.1 µM (inactive); in test [2], 16.4 µM (inactive); in test [3] it was 12.2 µM (inactive); in test [4] it was 10.8 µM (inactive); in [5], 19 µM (inactive); in test [6], 20.2 µM (inactive). The GI50 in test [7] was 15 µM (inactive); in test [8], 12.9 µM (inactive); in test [9] it was 28.7 µM (inactive); in [10] it was 18.3 µM (inactive); in test [11] it was 12.9 µM (inactive); in test [12] it was 22.5 µM (inactive). Also, the GI50 in test [13] is 13.2 µM (inactive); in test [14], 10 µM (inactive); in test [15], 4.1 µM (inactive); in test [16], 17.6 µM (inactive); in test [17], 6.05 µM (inactive); in [18] it was 16.1 µM (inactive). Also, the GI50 in test [19] was 12.5 µM (inactive); in test [20], 1.11 µM (active).

In the case of `O=C1CNNC(CSc2nc3ccc(I)cc3c(=O)n2Cc2ccccc2)=N1`, the GI50 in [1] was 15.5 µM (inactive); in test [2], 28.4 µM (inactive); in [3], 27.5 µM (inactive); in test [4], 29.9 µM (inactive); in test [5], 23.6 µM (inactive); in test [6], 15 µM (inactive). Besides, the GI50 in [7] was 18.6 µM (inactive); in test [8], 22.5 µM (inactive); in [9] it was 18.1 µM (inactive); in test [10], 16.4 µM (inactive); in test [11], 42.4 µM (inactive); in test [12], 38.5 µM (inactive). The GI50 in test [13] was 28.1 µM (inactive); in test [14] it was 14.1 µM (inactive); in [15] it was 36.1 µM (inactive); in test [16], 37.4 µM (inactive); in [17], 20.8 µM (inactive); in test [18] it was 1.24 µM (inactive). The GI50 is 23 µM (inactive) in test [19] and 2.23 µM (inactive) in [20].

Turning to `Cc1cc2c(cc1C)C(=O)c1ncccc1C2=O`, the GI50 was 34.8 µM (inactive) in test [1]; 20.2 µM (inactive) in test [2]; 18.7 µM (inactive) in test [3]; 28.5 µM (inactive) in [4]; 17.4 µM (inactive) in test [5]; 36.6 µM (inactive) in test [6]. In addition, the GI50 in [7] was 3.06 µM (inactive); in test [8] it was 26.5 µM (inactive); in [9], 40.1 µM (inactive); in test [10] it was 48.5 µM (inactive); in test [11], 30.9 µM (inactive); in test [12], 22.7 µM (inactive). The GI50 in test [13] is 31.5 µM (inactive); in test [14] it was 18.3 µM (inactive); in [15], 23.6 µM (inactive); in [16] it was 21.9 µM (inactive); in test [17] it was 19.9 µM (inactive); in test [18], 37.3 µM (inactive). Also, the GI50 in test [19] is 16.7 µM (inactive); in test [20], 11.2 µM (inactive).

Take `CC(=O)N1c2ccccc2C23CCN4CC5=CCOC(O)C(C5CC42)C13` (stereo not given): the GI50 in test [1], in test [2], in [3], in test [4], in test [5] and in test [6] was > 100 µM (inactive) throughout. Also, the GI50 in test [7], in test [8], in test [9], in test [10], in test [11] and in test [12] was > 100 µM (inactive) each time. The GI50 in test [13], in test [14], in [15], in [16], in test [17] and in test [18] was > 100 µM (inactive) throughout. The GI50 in [19] and in [20] was > 100 µM (inactive) throughout.

For the compound `COC(=O)c1cc(C)ccc1C1CN=NC12Cc1c(C)cc(C)cc1C2=O` (stereo not given), the GI50 was 31 µM (inactive) in test [1]; 20.6 µM (inactive) in [2]; 14.4 µM (inactive) in test [3]; 25.7 µM (inactive) in [4]; 33.5 µM (inactive) in [5]; 31.4 µM (inactive) in [6]. The GI50 in test [7] was 14.9 µM (inactive); in [8], 17.1 µM (inactive); in [9], 35.8 µM (inactive); in test [10] it was 16.4 µM (inactive); in test [11], 33.2 µM (inactive); in test [12] it was 26.7 µM (inactive). Moreover, the GI50 in [13] is 16.5 µM (inactive); in test [14], 16.7 µM (inactive); in test [15], 17 µM (inactive); in test [16], 16.9 µM (inactive); in [17] it was 14.7 µM (inactive); in test [18] it was 23 µM (inactive). For the same compound, the GI50 in [19] was 13.6 µM (inactive); in test [20], 6.1 µM (inactive).

Regarding `Nc1c2c(nc3ccccc13)-c1ccccc1CCC2`, the GI50 in test [1] was 13.2 µM (inactive); in [2] it was 13.6 µM (inactive); in test [3], 13.2 µM (inactive); in test [4], 14.1 µM (inactive); in [5] it was 17.3 µM (inactive); in test [6], 14.4 µM (inactive). Further, the GI50 in [7] was 14.1 µM (inactive); in test [8], 13.4 µM (inactive); in test [9], 13.6 µM (inactive); in test [10], 15 µM (inactive); in test [11], 11.6 µM (inactive); in [12], 13.8 µM (inactive). The GI50 in test [13] was 14.1 µM (inactive); in test [14], 14.1 µM (inactive); in test [15], 13.1 µM (inactive); in [16], 14.4 µM (inactive); in [17], 7.16 µM (inactive); in test [18], 10.5 µM (inactive). The GI50 was 15.6 µM (inactive) in test [19] and 10.1 µM (inactive) in test [20].

Take `CS[C@]12[C@@H]3C(=O)N(C)C(=O)[C@@H]3[C@](C)(C(=O)N1C)C(=O)N2c1ccccc1`: the GI50 in test [1], in [2], in test [3], in test [4], in [5] and in test [6] was > 100 µM (inactive) throughout. Moreover, the GI50 in test [7], in test [8], in [9], in [10], in [11] and in test [12] was > 100 µM (inactive) in each case. Also, the GI50 in test [13], in test [14], in test [15], in test [16], in test [17] and in [18] was > 100 µM (inactive) throughout. The GI50 in test [19] and in test [20] was > 100 µM (inactive) each time.
